# Data taken from patent US12605397B2, “Deoxy-cytidine or uridine derivatives for use in cancer therapies” (HEMISPHERIAN AS, priority 2019, dated 2026).
# Legend:
# [1] = test system: glioblastoma multiforme; conditions: glioblastoma multiforme patients; cited from earlier work
# [2] = test system: H1437 cells; assay: Survival assay (MTT), H1437; type: cell-based; conditions: Homo sapiens, NCI-H1437
# Description: Cells were passed between 70 and 90% confluence.
# Cells were incubated with the drugs for 72 hours.
SMILES,improvement of overall survival [1] [months],"IC50 ([2]; H1437, Lung (metastatic non-small cell adenocarcinoma), 72 hours, MTT) [µM]","IC50 ([2]; H1437, Tables 6 and 7, unit inferred) [µM]"
"Cn1nnc2c(C(N)=O)ncn2c1=O [Temozolomide, 4-methyl-5-oxo-2,3,4,6,8-pentazabicyclo[4.3.0]nona-2,7,9-triene-9-carboxamide, reference compound]",2.5,,
"Nc1nc(=O)n([C@H]2C[C@H](O)[C@@H](CO)O2)cc1C=O [2d5fC, 5-formyl-2′-deoxycytidine]",,5.65,5.65
